Literature values in patent publication US11759447B1, “Compound and method for treating diseases and disorders” (RCR BIOPHARMA, priority 2019, dated 2023).

Key:
[1] = oral forms such as CBD treats
dogs [2] = settings: high levels of hemp-derived CBD (<0.3% THC)
dogs [3] = settings: IV
dogs [4] = tested on: dogs

SMILES: C=C(C)[C@@H]1CCC(C)=C[C@H]1c1c(O)cc(CCCCC)cc1O [CBD, Cannabidiol]
- fraction of orally administered CBD ultimately absorbed, on average [1]: 5-10%
- dogs with ataxia (dogs [2]): 2 of the 10

SMILES: CCCCCc1cc(O)c2c(c1)OC(C)(C)[C@@H]1CCC(C)=C[C@@H]21 [THC, Δ-9-tetrahydrocannabinol]
- dose causing Static Ataxia (dogs [3]): > 0.5 mg/kg

SMILES: COc1cccc(C2(O)CCCCC2CN(C)C)c1 (stereo not shown) [tramadol, Tramadol]
- peak vertical force or vertical impulse versus placebo (dogs [4]): no improvement
